Measured values reported in patent US11673899B2, “Crystal form of thieno[2,3-c]pyridazine-4(1H)-one compound, preparation method therefor and use thereof” (ZHANGZHOU PIEN TZE HUANG PHARMACEUTICAL CO., LTD., priority 2019, dated 2023).

Columns and labels:
[1] = system: HFD+CCl4-induced NASH mouse model; assay: In vivo pharmacodynamic study in HFD+CCl4-induced NASH mouse model; conditions: HFD+CCl4 mice; 0.5, 1, 3 mg/kg by gavage QD day 0 to day 27; reference I-181 3 mg/kg
From the text: To study the effect of a compound on improving NASH and liver fibrosis in an HFD+CCl4 mouse model, with I-181 as a reference compound.
I-181 is an acetyl-CoA carboxylase inhibitor and is currently undergoing a phase II clinical study on non-alcoholic fatty liver disease (NAFLD). The HFD+CCl4 mouse model used in this study is an animal model that simulates human non-alcoholic fatty liver disease evolving into NASH. High-fat diet leads to fat accumulation and steatosis in liver cells; CCl4 (intraperitoneal injection, twice a week) simulates the “second hit” of liver injury.
The modeling for this experiment included two steps: high-fat diet feeding and CCl4 induction. Firstly, the mice were fed with high-fat diet to induce non-alcoholic fatty liver, and the mice weighing more than (>) 38 g were selected and continuously fed with high-fat diet, accompanied by the intraperitoneal injection of 25% CCl4 ([…], twice a week, for a total of four weeks). The day of starting CCl4 administration was set as day 0, and the time of starting CCl4 administration was set as hour 0. On the day of starting CCl4 administration, the administration by gavage was started, and the administration volume of each group was 5 mL/kg, once a day for 4 weeks (28 days). The injection time of CCl4 should be more than 4 hours apart from the first administration time point of the day. […]

[2] = Stability of crystal form to light, heat and humidity; format: physicochemical; conditions: solid crystal form

## COc1ccccc1[C@H](Cn1nc(C(C)(C)C(=O)O)c(=O)c2c(C)c(-c3ncco3)sc21)OC1CCOCC1 [Compound of formula (I)]
[1]
  Efficacy in NAS: the same efficacy as the reference compound at a higher dose
  Efficacy in fibrosis: the same efficacy as the reference compound at a higher dose

## COc1ccccc1[C@H](Cn1nc(C(C)(C)C(=O)O)c(=O)c2c(C)c(-c3ncco3)sc21)OC1CCOCC1
[2]
  Stability (light, heat and humidity): stable, and less affected by light, heat and humidity
